Test results as given in patent publication US20220008542A1, “ANTI-PROTOZOAL COMPOUNDS AND USES THEREOF” (AUBURN UNIVERSITY, priority 2017, published 2022).
Where two headings read alike, the source gives them in different places.

Tests used:
T. foetus trophozoites [1] = assay: Example 1: T. foetus trophozoites in culture tubes, surviving organisms counted by hemocytometer, re-culture at 12 hours; assay type: cell-based, Tritrichomonas foetus; details: for inhibition of parasite growth: PO 75 mg mL^-1, OX 50 mg mL^-1, compound alone; for reduction in motile organisms: after 2 hours of culture, compound alone; for motile organisms after re-culture: re-culture at 12 hours, examination at 24 hours
Method: (§1) Experiments were performed in vitro using pure cultures of T. foetus trophozoites with the addition of i) an antiprotozoal compound alone or ii) a veterinary formulation comprising an antiprotozoal compound and a polymer. Samples were evaluated at predetermined time points using Neubauer hemocytometers (C-Chip® NanoEnTek Inc., Pleasanton, Calif.) to determine the number of viable organisms and the induction of the pseudocyst form. Cultures were tested for reversibility to the motile trophozoite form or replication of organisms.
(§2) The CDTf3 cloned strain of T. foetus was utilized for the instant examples. The parasites were cultivated in trypticase-yeast extract-maltose (TYM) Diamond's medium (DM) and supplemented with 10% heat-inactivated fetal bovine serum (Atlanta Biologics, Norcross, Ga.) at 37° C. for 24-48 hours until adequate numbers of trichomonads were present to perform the required number of replications. Following culture, T. foetus organisms were washed and re-suspended in 1 mL of sterile phosphate buffered saline (PBS) and then inoculated into 15 mL conical tubes (BD Falcon, Franklin Lakes, N.J.) or tissue culture wells (Sarstedt, Inc., Newton, N.C.) containing DM.
Trophozoites (3.75×10^5 mL^−1) were washed in PBS (VWR, Radnor, Pa.) and inoculated into 10 mL of fresh DM. At time 0, each of the following treatment groups was added to culture tubes: Group 1) control: 0.5 mL DM; Group 2) 0.5 mL pluronic lecithin organogel (PLO; Pluronic F127); Group 3) 75 mg ponazuril (PO) (0.5 mL); Group 4) 50 mg oxibendazole (OX) (0.5 mL); Group 5) 37.5 mg PO (0.25 mL)+0.25 mL PLO; and Group 6) 25 mg OX (0.25 mL)+0.25 mL PLO.
PLO (Pluronic F127 Letco Medical, Decatur, Ala.) was combined with OX (Anthelcide EQ® Zoetis, Florham Park, N.J.) or PO (Marquis® Merial, Duluth, Ga.) paste formulations by shear force, syringe-to-syringe-blending using two luer-lock syringes and a rapid fill connector (Baxter, Inglewood, Calif.). Each treatment was applied to conical culture tubes in 5 replicates. Following growth at 37° C., samples were taken every 2 hours for a total of 12 hours, and the tubes were vortexed prior to removal of a 20 μL sample. From these samples, the surviving organisms were counted utilizing disposable Neubauer hemocytometers (C-Chip® NanoEnTek Inc., Pleasanton, Calif.). At 12 hours post-treatment, each formulation was recultured in fresh DM without antiprotozoal compound and evaluated microscopically daily for the presence of T. foetus organisms in culture. These assays were performed in order to evaluate if the effects exerted by the antiprotozoal compounds could be reversed.

T. foetus trophozoites [2] = assay: Example 3: T. foetus trophozoites in tissue culture wells, 5 passages (120 hours), re-emergence of organisms; assay type: cell-based, Tritrichomonas foetus; details: for subsequent cultures: over a 5 day period
Method: as §1, §2
Trophozoites (5×10^4 mL^−1) were cultured as described above and added to all tissue culture wells along with 3 mL of DM for a total volume of 4 mL of DM with 50,000 organisms per well. At time 0, each of the following treatment groups were added to tissue culture wells as follows: Group 1) positive control 4 mL DM; Group 2) negative control 4 mL 70% ethanol (EtOH); Group 3) 150 mg oxfendazole solution (OXF) (1 mL)+2 mL Velvachol (VC)+1 mL PLO; Group 4) 150 mg OXF (1 mL)+3 mL VC; Group 5) 150 mg OXF (1 mL)+3 mL EtOH; Group 6) 150 mg OXF (1 mL)+2 mL EtOH+1 mL PLO; Group 7) 1 mL EtOH+2 mL VC+1 mL PLO; Group 8) 1 mL EtOH+3 mL VC; Group 9) 3 mL EtOH+1 mL PLO; Group 10) 4 mL EtOH; Group 11) 4 mL VC; Group 12) 150 mg oxfendazole dissolved in 4 mL 99% DMSO; and Group 13) 4 mL 99% DMSO.
The OXF (U.S. Pharmacopeial Convention Rockville, Md.) stock solution was made in EtOH (Humco Texarkana, TX) and stored at 150 mg mL^−1, with the exception of Formulation 13 which included OXF dissolved in 99% DMSO (VedCo, Saint Joseph, Mo.). The combinations of PLO (Pluronic F127 Letco Medical, Decatur, Ala.), VC (Valeant North America LLC, Bridgewater, N.J.), EtOH (Humco Texarkana, TX), and OXF stock solution were mixed as described above.
Each treatment was applied to tissue culture wells in duplicate. Following culture as described in Example 2, samples were collected every 8 hours for a total of 24 hours and counted as previously described. At 24 hours post-treatment and following counting of organisms, each formulation was removed from the tissue culture well and centrifuged at 4000 g for 10 minutes. The supernatant was removed and placed in a labeled vial for evaluation of drug concentration at a later time. The pellet was re-suspended in 4 mL of DM and placed once again in a tissue culture well before being re-incubated at 37° C. This process was repeated every 24 hours for 5 passages (120 hours) to allow for re-emergence of any organisms. Assays were continued to be microscopically examined during this period for the presence of T. foetus organisms in culture by counting of live organisms.

SMILES	inhibition of parasite growth (T. foetus trophozoites [1])	reduction in motile organisms (T. foetus trophozoites [1])	motile organisms after re-culture (T. foetus trophozoites [1])	death of trophozoites (T. foetus trophozoites [2])	surviving organisms / form seen, 8 hours post-incubation (T. foetus trophozoites [2])	surviving organisms / form seen, 16 hours post-incubation (T. foetus trophozoites [2])	surviving organisms / form seen, 24 hours post-incubation (T. foetus trophozoites [2])	surviving organisms / form seen, 48 hours post-incubation (T. foetus trophozoites [2])	surviving organisms / form seen, 72 hours post-incubation (T. foetus trophozoites [2])	surviving organisms / form seen, 96 hours post-incubation (T. foetus trophozoites [2])	surviving organisms / form seen, 120 hours post-incubation (T. foetus trophozoites [2])	subsequent cultures (T. foetus trophozoites [2])	death of trophozoites (T. foetus trophozoites [2]; listed as 99% DMSO)
Cc1cc(-n2c(=O)[nH]c(=O)n(C)c2=O)ccc1Oc1ccc(S(=O)(=O)C(F)(F)F)cc1 [PO, 1-Methyl-3-(3-methyl-4-(4-((trifluoromethyl)sulfonyl)phenoxy)phenyl)-1,3,5-triazinane-2,4,6-trione]	significantly inhibited parasite growth	98%	reestablishment of motile organisms was observed										
CCCOc1ccc2nc(NC(=O)OC)[nH]c2c1 [OX, methyl (5-propoxy-1H-benzimidazol-2-yl)carbamate]	significantly inhibited parasite growth	98%	reestablishment of motile organisms was observed										
CCO [EtOH, ethanol]				capable of inducing death of trophozoites	dead trophs	dead trophs	dead trophs	dead trophs	dead trophs	no cells	no cells	negative cultures	
C[S+](C)[O-] [DMSO]					dead trophs	dead trophs	dead trophs	dead trophs	dead trophs	no cells	no cells	negative cultures	capable of inducing death of trophozoites
